Drawing on patent publication US20250268903A1, “RXFP1 AGONISTS” (BRISTOL-MYERS SQUIBB COMPANY, priority 2021, published 2025), this text covers EC50 for 21 compounds.

In this test the target is T1, human RXFP1 (Homo sapiens, UniProt Q9HBX9).
T1 construct: expressed in transfected cells
T1 sequence (Q9HBX9 1-757): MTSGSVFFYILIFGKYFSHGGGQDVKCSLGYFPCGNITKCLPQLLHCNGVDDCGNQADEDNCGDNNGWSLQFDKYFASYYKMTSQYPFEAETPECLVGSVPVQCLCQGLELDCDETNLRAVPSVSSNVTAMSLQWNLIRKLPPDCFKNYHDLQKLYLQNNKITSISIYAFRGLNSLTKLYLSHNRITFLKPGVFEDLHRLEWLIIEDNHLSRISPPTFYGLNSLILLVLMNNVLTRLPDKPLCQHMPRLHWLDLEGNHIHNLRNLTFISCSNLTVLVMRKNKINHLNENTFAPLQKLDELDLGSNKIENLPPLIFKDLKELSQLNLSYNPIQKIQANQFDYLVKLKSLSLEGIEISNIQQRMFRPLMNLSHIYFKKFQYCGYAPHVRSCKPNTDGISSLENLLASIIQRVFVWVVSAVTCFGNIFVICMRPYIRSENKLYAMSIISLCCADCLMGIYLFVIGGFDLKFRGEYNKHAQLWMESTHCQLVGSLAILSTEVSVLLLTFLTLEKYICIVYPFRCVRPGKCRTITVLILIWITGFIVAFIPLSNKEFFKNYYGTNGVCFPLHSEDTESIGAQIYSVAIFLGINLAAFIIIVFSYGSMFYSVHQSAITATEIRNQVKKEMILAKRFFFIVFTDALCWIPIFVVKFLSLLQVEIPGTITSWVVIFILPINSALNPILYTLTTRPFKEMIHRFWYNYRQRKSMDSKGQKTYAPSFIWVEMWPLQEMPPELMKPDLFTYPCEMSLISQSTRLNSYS
Nature of the test: hRXFP1 HEK293 cAMP assay (HTRF). Format: cell-based. As to conditions: HEK293 cells stably expressing human RXFP1, 30 min at room temperature. An outline of the steps:
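HEK293 cells stably expressing human RXFP1 were suspended in HBSS (Ca/Mg) with 20 mM HEPES, 0.05% BSA and 0.5 mM IBMX, then treated with compounds (0.010 nM–50 μM, 2% DMSO final) for 30 min at room temperature. Intracellular cAMP was measured by HTRF, and potency was derived from 4-parameter logistic fits.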
As a reminder, the EC50 is the concentration that produces a half-maximal response. With `COc1ccc(COCCC(=O)O)cc1C(=O)N[C@@H]1C2CCC(/C2=C/c2ccccc2)[C@@H]1C(=O)Nc1ccc(F)c(C(F)(F)F)c1` (stereo partly drawn) [Example 28, 3-[(3-{[(2R,3S,7Z)-3-{[4-fluoro-3-(trifluoromethyl)phe-nyl]carbamoyl}-7-(phenylmethylidene)bicyclo[2.2.1]heptan-2-yl]carbamoyl}-4-methoxyphenyl)meth-oxy]propanoic acid], the EC50 was found to be 56 nM.

Consider `COc1ccc(CCCO)cc1C(=O)N[C@@H]1C2CCC(/C2=C/C(F)(F)F)[C@@H]1C(=O)Nc1ccc(F)c(C(F)(F)F)c1` (stereo partly drawn) [Example 84, (2S,3R,7Z)-N-[4-fluoro-3-(trifluoromethyl)phe-nyl]-3-[5-(3-hydroxypropyl)-2-methoxybenzamido]-7-(2,2,2-trifluoroethylidene)bi-cyclo[2.2.1]heptane-2-carboxamide], for which the EC50 was determined as 67 nM.

The compound `CCN1CCN(S(=O)(=O)c2ccc(OC)c(C(=O)N[C@H]3[C@@H](C(=O)Nc4ccc(F)c(C(F)(F)F)c4)[C@H]4CC[C@@H]3/C4=C\C(F)(F)F)c2)CC1` [Example 209] returned an EC50 of 603 nM.

`COc1ccc(COC[C@@H]2C[C@@H]2C(=O)O)cc1C(=O)N[C@H]1[C@@H](C(=O)Nc2ccc(F)c(C(F)(F)F)c2)[C@H]2CC[C@@H]1/C2=C\C1CC1` [Example 292, (1S,2R)-2-{[(3-{[(1R.2R,3S,4R,7Z)-7-(cyclopropyl-methylidene)-3-{[4-fluoro-3-(trifluoromethyl)phenyl]carbamoyl}bicyclo[2.2.1]heptan-2-yl]carbamoyl}-4-methoxyphenyl)methoxy]methyl} cyclopropane-1-carboxylic acid] displayed an EC50 of 28.4 nM.

Regarding `COc1ccc(C2CCCCC2)cc1C(=O)N[C@@H]1C2CCC(/C2=C/C(F)(F)F)[C@@H]1C(=O)Nc1ccc(F)c(C(F)(F)F)c1` (stereo partly drawn) [Example 39, (2S,3R,7Z)-3-(5-cyclohexyl-2-methoxybenzamido)-N-[4-fluoro-3-(trifluoromethyl)phenyl]-7-(2,2,2-trifluoroethylidene) bicyclo[2.2.1]heptane-2-carboxamide], the EC50 came out at 611 nM. This EC50 is about 22-fold higher than that of the compound before.

`COc1ccc(C(=O)NC(C)(C)C)cc1C(=O)N[C@H]1[C@@H](C(=O)Nc2ccc(F)c(C(F)(F)F)c2)[C@H]2CC[C@@H]1/C2=C\C1CC1` [Example 236, N1-tert-butyl-N3-[(1R,2R,3S,4R,7Z)-7-(cyclopropyl-methylidene)-3-{[4-fluoro-3-(trifluoromethyl)phenyl]carbamoyl}bicyclo[2.2.1]heptan-2-yl]-4-methoxybenzene-1,3-dicarboxamide] yielded an EC50 of 234 nM.

Compound `COCC/C=C1\C2CCC1[C@H](C(=O)Nc1ccc(F)c(C(F)(F)F)c1)C2NC(=O)c1cc(CCC(C)(C)O)ccc1OC` (stereo partly drawn) [Example 162, (7Z)-N-[4-fluoro-3-(trifluoromethyl)phe-nyl]-3-[5-(3-hydroxy-3-methylbutyl)-2-methoxybenzamido]-7-(3-methoxypropylidene) bicyclo[2.2.1]heptane-2-carboxamide] came in with a concentration for a half-maximal effect (EC50) of 1240 nM.

Take `COc1ccc(C2CC2C(=O)N2CCC(O)CC2)cc1C(=O)N[C@H]1[C@@H](C(=O)Nc2ccc(F)c(C(F)(F)F)c2)[C@H]2CC[C@@H]1/C2=C\C(F)(F)F` (single isomer, unassigned) [Example 325]: it took 2940 nM to reach a half-maximal effect (EC50).

`COC/C=C/c1ccc(OC)c(C(=O)N[C@@H]2C3CCC(C3=C(C)C)[C@@H]2C(=O)Nc2ccc(F)c(C(F)(F)F)c2)c1` (stereo partly drawn) [Example 31, (2S,3R)—N-[4-fluoro-3-(trifluoromethyl)phenyl]-3-{2-methoxy-5-[(1E)-3-methoxyprop-1-en-1-yl]benzamido}-7-(propan-2-ylidene) bicyclo[2.2.1]heptane-2-carboxamide] yielded an EC50 of 180 nM.

As to `COc1ccc(C(O)C(F)(F)F)cc1C(=O)NC1C2CCC(/C2=C/C(F)(F)F)[C@@H]1C(=O)Nc1ccc(F)c(C(F)(F)F)c1` (single isomer, unassigned) [Example 6], the EC50 is 1240 nM.

For the compound `COc1ccc(COCC2CC2(F)F)cc1C(=O)N[C@@H]1C2CCC(/C2=C/C2CC2)[C@@H]1C(=O)Nc1ccc(F)c(C(F)(F)F)c1` (stereo partly drawn) [Example 15, (2S,3R,7Z)-7-(cyclopropylmethyli-dene)-3-(5-{[(2,2-difluorocyclopropyl)methoxy]methyl}-2-methoxybenzamido)-N-[4-fluoro-3-(trifluoromethyl)phe-nyl]bicyclo[2.2.1]hept-ane-2-carboxamide], a half-maximal effect (EC50) was put at 36 nM. Compared with the last compound, the EC50 is about 34-fold lower.

On to `COc1ccc(CCN2CCOC2=O)cc1C(=O)NC1C2CCC(/C2=C/C2CCC2)[C@@H]1C(=O)Nc1ccc(F)c(C(F)(F)F)c1` (stereo partly drawn) [Example 191, (7Z)-7-(cyclobutylmethyl-idene)-N-[4-fluoro-3-(trifluoromethyl)phe-nyl]-3-{2-methoxy-5-[2-(2-oxo-1,3-oxazolidin-3-yl)ethyl]benzamido} bicyclo[2.2.1]heptane-2-carboxamide], for which the EC50 turned out to be 40 nM.

The compound `COc1cc(CN2C(=O)CNC2=O)ccc1C(=O)N[C@@H]1C2CCC(/C2=C/C(F)(F)F)[C@@H]1C(=O)Nc1ccc(F)c(C(F)(F)F)c1` (stereo partly drawn) [Example 26, (2S,3R,7Z)-3-{4-[(2,5-dioxoimidazolidin-1-yl)methyl]-2-methoxybenzamido}-N-[4-fluoro-3-(trifluoromethyl)phe-nyl]-7-(2,2,2-trifluoroethylidene)bi-cyclo[2.2.1]heptane-2-carboxamide] came in with an EC50 of 1380 nM.

Regarding `COc1ccc(CCC(C)(C)O)cc1C(=O)NC1C2CCC(/C2=C/CC(C)(C)C)[C@@H]1C(=O)Nc1ccc(F)c(C(F)(F)F)c1` (stereo partly drawn) [Example 163, (7Z)-7-(3,3-dimethylbutylidene)-N-[4-fluoro-3-(trifluoromethyl)phe-nyl]-3-[5-(3-hydroxy-3-methylbutyl)-2-methoxybenzamido] bicyclo[2.2.1]heptane-2-carboxamide], the midpoint of the response, the EC50, lay at 278 nM.

The compound `COc1ccc(C2CCCC(NC(=O)C3CCOCC3)C2)cc1C(=O)N[C@@H]1C2CCC(/C2=C/C(F)(F)F)[C@@H]1C(=O)Nc1ccc(F)c(C(F)(F)F)c1` (single isomer, unassigned) [Example 50] gave an EC50 of 2350 nM.

In turn, `COc1ccc(/C=C/C(=O)N2CC[C@H](O)C2)cc1C(=O)N[C@@H]1C2CCC(/C2=C/C(F)(F)F)[C@@H]1C(=O)Nc1ccc(F)c(C(F)(F)F)c1` (stereo partly drawn) [Example 130, (2S,3R,7Z)-N-[4-fluoro-3-(trifluoromethyl)phe-nyl]-3-{5-[(1E)-3-[(3S)-3-hydroxypyrrolidin-1-yl]-3-oxoprop-1-en-1-yl]-2-methoxybenzamido}-7-(2,2,2-trifluoroethylidene)bi-cyclo[2.2.1]heptane-2-carboxamide] registered an EC50 of 114 nM.

`COc1ccc(CCCO)cc1C(=O)NC1C2CCC(/C2=C/C2CC(F)(F)C2)[C@@H]1C(=O)Nc1ccc(F)c(C(F)(F)F)c1` (stereo partly drawn) [Example 159, (2S,3R,7Z)-7-[(3,3-difluorocyclobutyl)methylidene]-N-[4-fluoro-3-(trifluoromethyl)phe-yl]-3-[5-(3-hydroxypropyl)-2-methoxybenzamideo] bicyclo[2.2.1]heptane-2-carboxamide] had an EC50 of 43 nM.

As for `COc1ccc(C2CC3(CC(NC(=O)OC(C)(C)C)C3)C2)cc1C(=O)NC1C2CCC(/C2=C/C(F)(F)F)[C@@H]1C(=O)Nc1ccc(F)c(C(F)(F)F)c1` (stereo partly drawn) [Example 153, tert-butyl N-[6-(3-{[(2R,3S,7Z)-3-{[4-fluoro-3-(trifluoromethyl)phe-nyl]carbamoyl}-7-(2,2,2-trifluoroethylidene)bi-cyclo[2.2.1]heptan-2-yl]carbamoyl}-4-methoxyphenyl)spiro [3.3]heptan-2-yl]carbamate], a half-maximal effect (EC50) was put at 1620 nM.

The compound `COc1ccc(S(=O)(=O)N2CCN(C(=O)OC(C)(C)C)[C@@H](CO)C2)cc1C(=O)N[C@H]1[C@@H](C(=O)Nc2ccc(F)c(C(F)(F)F)c2)[C@H]2CC[C@@H]1/C2=C\C(F)(F)F` [Example 226, tert-butyl (2R)-4-(3-{[(1R,2R,3S,4R,7Z)-3-{[4-fluoro-3-(trifluoromethyl)phenyl]carbamoyl}-7-(2,2,2-trifluoroethylidene)bicyclo[2.2.1]heptan-2-yl]carbamoyl}-4-methoxy-benzenesulfonyl)-2-(hydroxymethyl) piperazine-1-carboxylate] showed an EC50 of 1730 nM.

`COc1ccc(C23CCC(C(C)(C)O)(CC2)CC3)cc1C(=O)N[C@H]1[C@@H](C(=O)Nc2ccc(F)c(C(F)(F)F)c2)[C@H]2CC[C@@H]1/C2=C\C1CC1` (single isomer, unassigned) [Example 274] displayed an EC50 of 99.8 nM.

Compound `COc1ccc(CCCCCOC(=O)NC2CCC2)cc1C(=O)N[C@@H]1C2CCC(/C2=C/C(F)(F)F)[C@@H]1C(=O)Nc1ccc(F)c(C(F)(F)F)c1` (stereo partly drawn) [Example 103, 5-(3-{[(2R,3S,7Z)-3-{[4-fluoro-3-(trifluoromethyl)phe-nyl]carbamoyl}-7-(2,2,2-trifluoroethylidene)bi-cyclo[2.2.1]heptan-2-yl]carbamoyl}-4-methoxyphenyl)pent-yl N-cyclobutylcarbamate] yielded an EC50 of 725 nM. This EC50 lies about 7.3-fold higher than the previous one.
